From patent US20020188202A1, “Method of diagnosis and treatment and related compositions and apparatus” (priority 1996, published 2002) come the findings set out here.

The subject of series [1] is patients with cerebral vasospasm. The experiment in a line: Vasoactive medications tried on Applicant's patients with vasospasm, monitored by Transcranial Doppler (TCD), exam and symptoms. The note with it: for effect on vessels seen on TCD / ultrasound (vasoconstriction or dilatation) / headache / neurological exam and other neurological abnormalities: human, in vivo; for effectiveness in treating the vasospasm: qualitative rating in Applicant's patient population (tend to be the most severe cases); for EEG abnormalities and neurocognitive or neurological complaints / change of the vasospasm: anti-epileptic drugs in therapeutic doses.

For series [2] the test system is unchanged. The note with it: human, in vivo.
The test system of series [3] is patient with migraine, schizophrenic reaction and vasospasm. The experiment in a line: Case study: psychosis caused by cerebral ischemia, EEG and TCD. The format is in vivo, human patient. The settings on record: single patient; for response of psychosis (hallucinations and delusions): in hospital.
Where [4] appears, read: IM, lower doses than 90 to 120 mg.

SMILES strings stand for the structures. “Also recorded” adds a separate entry of the source. Where a name gives a salt, the structure may show the parent alone. Read-outs that look alike come from different tables or passages of the source.

On to `CN1C[C@H](C(=O)N[C@]2(C)O[C@@]3(O)[C@@H]4CCCN4C(=O)[C@H](Cc4ccccc4)N3C2=O)C[C@@H]2c3cccc4[nH]cc(c34)C[C@H]21` [DHE], for which, in series [1], the “effect on vessels seen on TCD / ultrasound (vasoconstriction or dilatation)” value was “caused vasoconstriction”; the headache result is on record as “improved their headache”; the “neurological exam and other neurological abnormalities” value was “worsened the patient's neurological exam and mentation”.

Consider `CC(COc1ccccc1)N(CCCl)Cc1ccccc1` (centres unmarked) [Dibenzyline, Phenoxybenzamine], for which, in series [1], the “effectiveness in treating the vasospasm” value was “relatively mild”.

`COC(=O)[C@H]1[C@H]2C[C@@H]3c4[nH]c5cc(OC)ccc5c4CCN3C[C@H]2C[C@@H](OC(=O)c2cc(OC)c(OC)c(OC)c2)[C@@H]1OC` [Reserpine]: in series [1], the “effectiveness in treating the vasospasm” value was “very effective; also recorded: extremely effective”.

As for `CNS(=O)(=O)Cc1ccc2[nH]cc(CCN(C)C)c2c1` [Imitrex, sumatriptan succinate], in series [1], the “effect on vessels seen on TCD / ultrasound (vasoconstriction or dilatation)” value was “caused vasoconstriction”; the headache entry is reported as “improved their headache”; the “neurological exam and other neurological abnormalities” value was “worsened the patient's neurological exam and mentation”.

On to `CSc1ccc2c(c1)N(CCC1CCCCN1C)c1ccccc1S2` (centres unmarked) [Mellaril, Thioridazine], for which, in series [1], the “effectiveness in treating the vasospasm” value is on record as “has not been effective; also recorded: no significant effects”.

Regarding `COc1cc2nc(N3CCN(C(=O)C4COc5ccccc5O4)CC3)nc(N)c2cc1OC` (centres unmarked) [Cardura, Doxazosin], in series [1], the “effectiveness in treating the vasospasm” value is “relatively mild medication”.

As to `Cc1nc2n(c(=O)c1CCN1CCC(c3noc4cc(F)ccc34)CC1)CCCC2` [Respiradol, Respiradone], the tolerability result in series [2] is “less well-tolerated in comparison with Thorazine and Navane”. In series [1] (antipsychotic agents in patients with vasospasm), the “patient's symptoms” value was “generally improved the patient's symptoms”. Moreover, the “effect on vessels seen on TCD / ultrasound (vasoconstriction or dilatation)” value in series [1] is listed as “no significant improvement on ultrasound”.

Turning to `O=C(c1ccccc1)c1ccc2n1CCC2C(=O)O` (centres unmarked) [Toradol, ketorolac tromethamine], the “effect on Transcranial Doppler ultrasound” value in series [1] (90 to 120 mg IM doses) is reported as “causes acute vasodilation on ultrasound in most patients”. Further, the “reversal of reactive vasoconstriction (Nitric Oxide sensitivity reaction) after first nitrate dose” value in series [1] (IM) is recorded as “can be immediately reversed”. The effectiveness result in series [1] (IM, doses lower than 90-120 mg) is “not so effective”. Moreover, in series [1] (setting [4]), the “effect on Transcranial Doppler ultrasound” value is listed as “generally do not show significant changes” and the patient-reported symptoms entry is on record as “symptomatic improvement”. The “improvement on Transcranial Doppler Artery Ultrasound” value in series [1] (IV, 30 to 60 mg doses) is given as “does not cause any improvement”. In series [1], the “effect on vessels seen on TCD / ultrasound (vasoconstriction or dilatation)” value is “resulted in vascular dilatation”; the headache entry was “alleviated or treated the headache”; the “neurological exam and other neurological abnormalities” value is “clinical and neurological exam improvement”. Also, the vasodilation entry in series [1] (intramuscularly (I.M.) or oral form after oral or I.M. loading) is “gives the expected vasodilation”.

As to `COc1cc2nc(N3CCN(C(=O)C4CCCO4)CC3)nc(N)c2cc1OC` (centres unmarked) [Hytrin, Terazosin], the “effectiveness in treating the vasospasm” value in series [1] is given as “less successful results; also recorded: has not been found to be effective”.

For the molecule `Clc1cccc(Cl)c1N=C1NCCN1` [Clonidine], in series [2], the “transient supersensitivity (transient worsening of the vasospasm) on early administration” value (“transient supersensitivity” below) is “did not occur”. For the same molecule, in series [1], the “effect on vessels seen on TCD / ultrasound (vasoconstriction or dilatation)” value is “resulted in vascular dilatation”; the headache result is “alleviated or treated the headache”; the “neurological exam and other neurological abnormalities” value is “clinical and neurological exam improvement”; the “effectiveness in treating the vasospasm” value is listed as “extremely effective”. In series [1] (patients who could not tolerate or respond to other vasodilators), the “treating migraine induced depression due to chronic vasospasm” value is “useful in these depressed patients”.

With `CC(C)NCC(O)COc1ccc(CC(N)=O)cc1` (centres unmarked) [Tenormin, Atenolol], the “effectiveness in treating the vasospasm” value in series [1] was “None of these have been significantly effective at vasodilation”.

As for `CC(CCc1ccccc1)NCC(O)c1ccc(O)c(C(N)=O)c1` (centres unmarked) [Normodyne, Labetolol], in series [1], the “effectiveness in treating the vasospasm” value is listed as “None of these have been significantly effective at vasodilation”.

For the molecule `CCOC(=O)[C@H](CCc1ccccc1)N[C@@H](C)C(=O)N1Cc2ccccc2C[C@H]1C(=O)O` [Accupril, Quinapril], in series [1], the “effectiveness in treating the vasospasm” value is reported as “consistently been the most effective”. For the same molecule, the “weaning from oral medications” value in series [1] (with concomitant low dose Nitroglycerin, 1/10th inch once to several times a day) is “most patients may be eventually weaned from the use of oral medications”.

In the case of `NCCCC[C@H](N[C@@H](CCc1ccccc1)C(=O)O)C(=O)N1CCC[C@H]1C(=O)O` [Prinivil, Lisinopril], in series [1], the “effectiveness in treating the vasospasm” value is recorded as “close second tier medications”.

As to `COc1ccc([C@@H]2Sc3ccccc3N(CCN(C)C)C(=O)[C@@H]2OC(C)=O)cc1` [Dilacor, Diltiazem], in series [1], the “effectiveness in treating the vasospasm” value is on record as “less effective”.

Regarding `COCCc1ccc(OCC(O)CNC(C)C)cc1` (centres unmarked) [Lopressor, Metoprolol Tartrate], the “effectiveness in treating the vasospasm” value in series [1] was “None of these have been significantly effective at vasodilation”.

With `C[C@H](CS)C(=O)N1CCC[C@H]1C(=O)O` [Capoten, Captopril], the “effectiveness in treating the vasospasm” value in series [1] was “close second tier medications”.

Take `CN(C)CCCN1c2ccccc2Sc2ccc(Cl)cc21` [Thorazine, Chlorpromazine]: the “effectiveness in treating the vasospasm” value in series [1] is on record as “moderately effected; also recorded: moderately effective”.

For `O=C(O)C(O)C(O)C(=O)O.Oc1ccc2c(c1)[C@@]13CCCC[C@@]1(O)[C@@H](C2)N(CC1CCC1)CC3` [Stadol, butorphanol tartrate], in series [1], the “effect on vessels seen on TCD / ultrasound (vasoconstriction or dilatation)” value is “caused vasoconstriction”; the headache entry is reported as “improved their headache”; the “neurological exam and other neurological abnormalities” value was “worsened the patient's neurological exam and mentation”.

As to `NNc1nncc2ccccc12` [Hydralazine], in series [2], the blood pressure changes result is “tends to cause significant blood pressure changes” and the “transient supersensitivity” value is listed as “did not occur”.

On to `CCCC(CCC)C(=O)[O-].[Na+]` [Depakote, Sodium Valproate], for which the “EEG and flow abnormalities on Transcranial Doppler” value in series [3] is “without change in their EEG and continued flow abnormalities”. Besides, in series [1], the “EEG abnormalities and neurocognitive or neurological complaints” value was “improved in some patients”; the “change of the vasospasm” value is on record as “none of the medications in therapeutic doses have changed the vasospasm”.

For `COC(=O)C1=C(C)NC(C)=C(C(=O)OC(C)C)C1c1cccc2nonc12` (centres unmarked) [Dynacirc, isradipine], the “transient supersensitivity” value in series [2] is on record as “did not occur”. Moreover, in series [1], the “effect on vessels seen on TCD / ultrasound (vasoconstriction or dilatation)” value was “resulted in vascular dilatation”; the headache result was “alleviated or treated the headache”; the “neurological exam and other neurological abnormalities” value is “clinical and neurological exam improvement”; the “effectiveness in treating the vasospasm” value is “extremely effective”.

Regarding `CN1CCN(CC/C=C2/c3ccccc3Sc3ccc(S(=O)(=O)N(C)C)cc32)CC1` [Navane, Thiothixene], the “response of psychosis (hallucinations and delusions)” value in series [3] is listed as “good response”. Also, in series [1] (patients with TCD mean flow velocities greater than 1.3, within a half hour of 2 mg in 4 ounces of water orally, generally expected), the “improvement in the Transcranial Doppler Artery Ultrasound” value amounted to 50%. In addition, the blood pressure changes entry in series [1] (patients with vasospasm) is listed as “without causing peripheral blood pressure changes”. The “effectiveness in treating the vasospasm” value in series [1] is recorded as “extremely effective central vasodilator”; in series [1] (listed as Navanne) it was “most effective”.

For the molecule `CC(C)NCC(O)COc1cccc2ccccc12` (centres unmarked) [Inderal, Propranolol], in series [3], the “EEG and flow abnormalities on Transcranial Doppler” value is “without change in their EEG and continued flow abnormalities”. In series [1] (patients being tapered off vasodilators), the “smoothing out the sympathetic nervous system excitability and variability” value is “most effective; also recorded: extremely effective”. Also, the “effectiveness in treating the vasospasm” value in series [1] is recorded as “None of these have been significantly effective at vasodilation”.

As to `NC(=O)N1c2ccccc2C=Cc2ccccc21` [Tegretol, Carbamazepine], in series [1], the “EEG abnormalities and neurocognitive or neurological complaints” value was “improved in some patients”; the “change of the vasospasm” value is given as “none of the medications in therapeutic doses have changed the vasospasm”.

For the molecule `O=C1NC(=O)C(c2ccccc2)(c2ccccc2)N1` [Dilantin, Phenytoin], in series [1], the “EEG abnormalities and neurocognitive or neurological complaints” value is given as “improved in some patients”; the “change of the vasospasm” value is given as “none of the medications in therapeutic doses have changed the vasospasm”.

Consider `NCCCC[C@H](N[C@@H](CCc1ccccc1)C(=O)O)C(=O)N1CCC[C@H]1C(=O)O` [Zestril, Lisinopril], for which the “effectiveness in treating the vasospasm” value in series [1] is “extremely effective”.

`CNCCC(Oc1ccc(C(F)(F)F)cc1)c1ccccc1` (centres unmarked) [Prozac]: the “effectiveness in treating the vasospasm” value in series [1] is on record as “helpful”.

Consider `CCOC(=O)[C@H](CCc1ccccc1)N[C@H]1CCc2ccccc2N(CC(=O)O)C1=O` [Lotensin, Benazepril], for which the “effectiveness in treating the vasospasm” value in series [1] is on record as “close second tier medications”.

Turning to `O=C(CCCN1CCC(O)(c2ccc(Cl)cc2)CC1)c1ccc(F)cc1` [Haldol, Haloperidol], the “response of psychosis (hallucinations and delusions)” value in series [3] was “did not respond; also recorded: poor response”.
